Four compounds from publication PMC7827406, “Structure–Activity Relationship (SAR) Study of Spautin-1 to Entail the Discovery of Novel NEK4 Inhibitors” (International Journal of Molecular Sciences, 2021) can be followed below.

Common to all, as to assay: biochemical
Common to all, as to set-up: Eurofins KinaseProfiler full panel at Km ATP, residual kinase activity (%) relative to DMSO

One assay has as its target T1, Rse(h) (Homo sapiens, UniProt Q06418).
T1 construct: gene TYRO3
T1 sequence (Q06418 1-890): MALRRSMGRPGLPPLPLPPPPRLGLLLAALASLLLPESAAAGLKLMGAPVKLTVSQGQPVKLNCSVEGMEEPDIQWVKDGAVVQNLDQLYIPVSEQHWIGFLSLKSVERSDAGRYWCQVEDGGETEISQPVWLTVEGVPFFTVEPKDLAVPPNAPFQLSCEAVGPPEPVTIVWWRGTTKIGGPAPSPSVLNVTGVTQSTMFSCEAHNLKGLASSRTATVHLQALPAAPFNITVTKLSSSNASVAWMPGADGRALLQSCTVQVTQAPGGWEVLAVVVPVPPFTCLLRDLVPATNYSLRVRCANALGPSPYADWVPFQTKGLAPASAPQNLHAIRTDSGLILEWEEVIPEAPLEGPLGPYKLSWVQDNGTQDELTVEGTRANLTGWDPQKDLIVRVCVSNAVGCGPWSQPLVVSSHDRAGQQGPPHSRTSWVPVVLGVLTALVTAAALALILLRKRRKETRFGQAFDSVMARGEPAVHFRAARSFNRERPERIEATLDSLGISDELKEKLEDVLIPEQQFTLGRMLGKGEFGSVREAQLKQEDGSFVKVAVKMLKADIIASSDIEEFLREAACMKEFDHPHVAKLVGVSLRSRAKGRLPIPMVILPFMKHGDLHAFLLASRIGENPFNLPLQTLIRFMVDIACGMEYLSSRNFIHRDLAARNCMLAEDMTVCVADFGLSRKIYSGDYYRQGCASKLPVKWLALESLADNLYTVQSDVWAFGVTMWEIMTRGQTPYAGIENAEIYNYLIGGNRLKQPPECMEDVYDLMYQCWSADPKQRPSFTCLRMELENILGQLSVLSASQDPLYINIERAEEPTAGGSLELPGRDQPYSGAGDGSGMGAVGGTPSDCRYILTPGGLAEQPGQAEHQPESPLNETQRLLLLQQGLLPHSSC
In outline: (§1)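 Compounds screened at 10 µM in radiometric kinase activity assays at Km ATP, reported as remaining kinase activity (%). A KINOMEscan competition-binding screen at 10 µM measured DNA-tagged kinase retained on immobilized active-site ligand by qPCR.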

Another assay concerns the target ALK(h) (Homo sapiens, UniProt Q9UM73). In outline: as §1
A further assay deals with T2, Mnk2(h) (Homo sapiens, UniProt Q9HBH9).
T2 construct: gene MKNK2
The method, boiled down: as §1

For another assay, the target named is Lyn(m) (Mus musculus, UniProt P25911). The method, boiled down: as §1
Another assay addresses CDKL3(h) (Homo sapiens, UniProt Q8IVW4). The method, boiled down:
as §1

The next assay concerns the target T3, Abl(h) (Homo sapiens, UniProt P00519).
T3 construct: gene ABL1
The method, boiled down:
as §1

The next assay has as its target CDKL4(h) (Homo sapiens, UniProt Q5MAI5). The method, boiled down: as §1
A further assay deals with T4, Aurora-A(h) (Homo sapiens, UniProt O14965).
T4 construct: gene AURKA
T4 sequence (O14965 1-403): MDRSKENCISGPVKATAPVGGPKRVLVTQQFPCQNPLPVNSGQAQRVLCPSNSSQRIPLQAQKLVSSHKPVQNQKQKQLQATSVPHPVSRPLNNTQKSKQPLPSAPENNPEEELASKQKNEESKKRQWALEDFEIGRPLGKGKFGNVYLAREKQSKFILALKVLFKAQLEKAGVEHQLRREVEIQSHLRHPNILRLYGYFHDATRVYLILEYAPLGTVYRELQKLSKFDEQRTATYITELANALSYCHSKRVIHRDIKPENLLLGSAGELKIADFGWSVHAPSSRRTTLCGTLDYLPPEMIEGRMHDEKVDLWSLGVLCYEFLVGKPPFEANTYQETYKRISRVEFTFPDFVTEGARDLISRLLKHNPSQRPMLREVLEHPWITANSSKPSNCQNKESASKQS
In outline:
as §1

The next assay has as its target Fer(h) (Homo sapiens, UniProt P16591). The method, boiled down:
as §1

Setting [1] is: read-out: Residual activity (%) Spautin-1 5aa.
The mark [2] stands for this setting: read-out: Residual activity (%) 5as.
[3] abbreviates: read-out: Residual activity (%) 5at.
Setting [4] is: read-out: Residual activity (%) 5ay.

Where two headings read alike, the source gives them in different places.

T2 sequence (Q9HBH9 whole entry): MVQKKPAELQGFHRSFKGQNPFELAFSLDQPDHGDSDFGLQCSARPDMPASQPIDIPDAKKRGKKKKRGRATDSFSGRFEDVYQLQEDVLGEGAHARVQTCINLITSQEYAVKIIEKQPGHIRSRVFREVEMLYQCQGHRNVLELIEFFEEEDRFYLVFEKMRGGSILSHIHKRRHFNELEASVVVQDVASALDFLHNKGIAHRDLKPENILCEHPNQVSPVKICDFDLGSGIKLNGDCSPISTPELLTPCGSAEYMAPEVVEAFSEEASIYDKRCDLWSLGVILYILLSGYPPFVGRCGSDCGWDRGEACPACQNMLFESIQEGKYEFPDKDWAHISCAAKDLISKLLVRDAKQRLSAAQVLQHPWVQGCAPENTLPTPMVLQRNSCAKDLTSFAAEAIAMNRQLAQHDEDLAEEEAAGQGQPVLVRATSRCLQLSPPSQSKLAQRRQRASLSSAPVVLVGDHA
Sequence of CDKL4(h) (Q5MAI5 whole entry): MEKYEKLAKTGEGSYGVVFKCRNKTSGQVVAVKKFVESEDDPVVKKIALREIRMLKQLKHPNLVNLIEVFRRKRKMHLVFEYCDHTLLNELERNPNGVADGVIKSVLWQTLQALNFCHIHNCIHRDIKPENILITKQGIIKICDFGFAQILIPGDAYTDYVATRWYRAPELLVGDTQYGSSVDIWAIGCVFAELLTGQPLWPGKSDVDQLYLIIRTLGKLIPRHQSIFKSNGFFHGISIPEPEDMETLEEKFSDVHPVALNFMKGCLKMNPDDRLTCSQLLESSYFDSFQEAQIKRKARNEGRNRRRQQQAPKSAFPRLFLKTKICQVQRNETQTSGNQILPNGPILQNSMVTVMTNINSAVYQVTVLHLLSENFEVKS
Sequence of CDKL3(h) (Q8IVW4 whole entry): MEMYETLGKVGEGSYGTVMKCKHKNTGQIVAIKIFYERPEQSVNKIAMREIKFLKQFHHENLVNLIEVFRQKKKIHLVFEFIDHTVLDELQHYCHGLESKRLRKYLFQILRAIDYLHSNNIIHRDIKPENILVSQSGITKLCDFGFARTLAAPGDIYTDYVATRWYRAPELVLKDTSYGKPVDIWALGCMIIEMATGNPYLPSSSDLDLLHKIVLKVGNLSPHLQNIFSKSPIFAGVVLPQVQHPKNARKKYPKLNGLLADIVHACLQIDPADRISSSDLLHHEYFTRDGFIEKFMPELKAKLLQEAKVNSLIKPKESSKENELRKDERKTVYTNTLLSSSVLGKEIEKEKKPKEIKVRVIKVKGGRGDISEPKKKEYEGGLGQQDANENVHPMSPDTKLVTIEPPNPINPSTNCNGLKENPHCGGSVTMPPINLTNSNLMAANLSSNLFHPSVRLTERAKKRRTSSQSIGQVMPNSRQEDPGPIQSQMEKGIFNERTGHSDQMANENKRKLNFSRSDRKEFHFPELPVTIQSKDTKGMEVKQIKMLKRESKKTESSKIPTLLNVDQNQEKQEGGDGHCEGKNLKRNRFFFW
Sequence of Lyn(m) (P25911 whole entry): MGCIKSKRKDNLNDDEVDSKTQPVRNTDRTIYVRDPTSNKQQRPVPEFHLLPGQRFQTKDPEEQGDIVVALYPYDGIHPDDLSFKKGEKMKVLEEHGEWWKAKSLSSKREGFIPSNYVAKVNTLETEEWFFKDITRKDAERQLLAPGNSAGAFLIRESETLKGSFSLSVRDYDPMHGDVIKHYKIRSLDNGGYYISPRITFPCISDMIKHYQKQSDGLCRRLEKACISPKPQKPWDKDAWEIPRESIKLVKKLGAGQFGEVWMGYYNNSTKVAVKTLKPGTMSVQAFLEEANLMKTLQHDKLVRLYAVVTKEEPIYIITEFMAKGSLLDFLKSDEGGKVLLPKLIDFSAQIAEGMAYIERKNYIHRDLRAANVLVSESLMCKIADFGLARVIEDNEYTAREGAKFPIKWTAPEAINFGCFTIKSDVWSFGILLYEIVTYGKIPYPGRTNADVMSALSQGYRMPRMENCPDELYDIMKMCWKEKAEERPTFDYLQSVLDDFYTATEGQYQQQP
T3 sequence (P00519 whole entry): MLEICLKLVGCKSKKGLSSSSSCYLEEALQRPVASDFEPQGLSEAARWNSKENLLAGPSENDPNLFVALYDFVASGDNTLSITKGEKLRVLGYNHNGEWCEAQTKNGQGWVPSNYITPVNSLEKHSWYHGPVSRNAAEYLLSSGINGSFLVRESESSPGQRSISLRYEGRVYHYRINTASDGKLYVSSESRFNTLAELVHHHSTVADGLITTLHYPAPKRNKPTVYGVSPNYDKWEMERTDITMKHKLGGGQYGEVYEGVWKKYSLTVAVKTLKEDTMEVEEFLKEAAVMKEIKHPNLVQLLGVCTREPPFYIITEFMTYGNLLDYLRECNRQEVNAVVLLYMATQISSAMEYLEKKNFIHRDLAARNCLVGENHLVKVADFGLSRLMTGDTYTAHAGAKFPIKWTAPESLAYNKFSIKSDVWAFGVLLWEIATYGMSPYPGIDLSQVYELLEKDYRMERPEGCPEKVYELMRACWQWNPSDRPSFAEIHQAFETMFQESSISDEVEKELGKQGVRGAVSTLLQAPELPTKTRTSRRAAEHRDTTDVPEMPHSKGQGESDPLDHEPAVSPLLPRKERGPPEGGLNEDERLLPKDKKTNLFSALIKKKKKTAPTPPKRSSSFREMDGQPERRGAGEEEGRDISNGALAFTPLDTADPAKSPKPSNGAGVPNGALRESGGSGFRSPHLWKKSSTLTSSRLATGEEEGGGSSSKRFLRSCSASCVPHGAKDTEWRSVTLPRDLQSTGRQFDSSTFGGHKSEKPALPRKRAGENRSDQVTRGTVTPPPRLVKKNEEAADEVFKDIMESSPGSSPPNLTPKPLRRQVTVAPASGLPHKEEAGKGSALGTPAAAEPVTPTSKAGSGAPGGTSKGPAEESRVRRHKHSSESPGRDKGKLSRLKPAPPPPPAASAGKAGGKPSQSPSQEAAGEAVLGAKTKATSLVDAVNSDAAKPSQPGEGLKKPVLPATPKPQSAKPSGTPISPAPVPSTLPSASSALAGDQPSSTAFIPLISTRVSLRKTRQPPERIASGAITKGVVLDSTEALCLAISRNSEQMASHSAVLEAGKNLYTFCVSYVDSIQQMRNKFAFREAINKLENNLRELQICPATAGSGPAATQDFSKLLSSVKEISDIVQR
Sequence of ALK(h) (Q9UM73 whole entry): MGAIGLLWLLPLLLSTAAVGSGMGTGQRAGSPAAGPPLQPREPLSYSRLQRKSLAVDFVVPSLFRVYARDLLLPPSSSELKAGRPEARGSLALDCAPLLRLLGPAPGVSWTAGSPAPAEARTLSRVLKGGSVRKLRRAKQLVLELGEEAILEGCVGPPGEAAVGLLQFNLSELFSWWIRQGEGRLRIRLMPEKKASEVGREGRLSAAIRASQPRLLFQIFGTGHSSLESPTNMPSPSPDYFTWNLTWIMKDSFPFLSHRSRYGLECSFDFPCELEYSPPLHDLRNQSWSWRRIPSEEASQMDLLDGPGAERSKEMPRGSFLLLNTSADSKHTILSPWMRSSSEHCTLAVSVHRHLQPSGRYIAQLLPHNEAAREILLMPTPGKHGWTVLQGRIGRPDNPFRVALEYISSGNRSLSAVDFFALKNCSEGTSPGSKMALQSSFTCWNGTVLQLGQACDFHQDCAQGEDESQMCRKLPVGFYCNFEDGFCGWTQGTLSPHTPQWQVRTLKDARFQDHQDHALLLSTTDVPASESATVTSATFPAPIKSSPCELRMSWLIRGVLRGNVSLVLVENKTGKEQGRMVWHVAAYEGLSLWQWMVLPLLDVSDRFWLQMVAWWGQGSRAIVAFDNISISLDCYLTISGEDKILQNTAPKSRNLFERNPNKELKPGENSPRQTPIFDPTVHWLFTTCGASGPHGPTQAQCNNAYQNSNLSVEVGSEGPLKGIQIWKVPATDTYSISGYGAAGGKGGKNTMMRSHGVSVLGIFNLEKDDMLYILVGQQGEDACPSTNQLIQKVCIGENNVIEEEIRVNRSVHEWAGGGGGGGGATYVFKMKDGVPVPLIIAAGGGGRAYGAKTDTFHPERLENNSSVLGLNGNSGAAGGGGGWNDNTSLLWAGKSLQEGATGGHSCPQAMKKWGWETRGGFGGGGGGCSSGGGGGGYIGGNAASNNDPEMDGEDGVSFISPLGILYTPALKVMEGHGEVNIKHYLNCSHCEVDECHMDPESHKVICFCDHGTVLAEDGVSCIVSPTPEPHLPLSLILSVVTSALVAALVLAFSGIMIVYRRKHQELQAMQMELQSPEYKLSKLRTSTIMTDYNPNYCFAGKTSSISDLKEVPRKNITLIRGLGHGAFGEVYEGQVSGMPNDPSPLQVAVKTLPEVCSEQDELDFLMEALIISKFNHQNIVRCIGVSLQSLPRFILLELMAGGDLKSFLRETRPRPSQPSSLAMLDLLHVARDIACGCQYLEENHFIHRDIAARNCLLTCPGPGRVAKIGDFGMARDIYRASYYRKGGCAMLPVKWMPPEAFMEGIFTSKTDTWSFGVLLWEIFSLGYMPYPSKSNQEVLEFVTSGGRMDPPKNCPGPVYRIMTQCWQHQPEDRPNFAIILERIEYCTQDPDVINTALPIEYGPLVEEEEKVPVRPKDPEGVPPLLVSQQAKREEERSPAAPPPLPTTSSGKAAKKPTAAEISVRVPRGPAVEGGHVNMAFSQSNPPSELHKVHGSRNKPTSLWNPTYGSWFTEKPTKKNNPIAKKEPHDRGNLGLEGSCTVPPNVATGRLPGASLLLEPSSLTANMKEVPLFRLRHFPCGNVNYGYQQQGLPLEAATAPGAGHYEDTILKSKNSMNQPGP

Turning to `Fc1ccc(CNc2ncnc3ccc(F)cc23)cc1` [5aa, 6-Fluoro-N-(4-fluorobenzyl)-4-Quinazolinamine], the remaining activity at 10 µM was determined as 104% at Rse(h) (setting [1]); 82% on ALK(h) (setting [1]); 93% at Mnk2(h) (setting [1]); 81% at Lyn(m) (setting [1]); 77% on CDKL3(h) (setting [1]); 83% at Abl(h) (setting [1]). Further, the values for the remaining activity at 10 µM at CDKL4(h) (setting [1]), at Aurora-A(h) (setting [1]) and at Fer(h) (setting [1]) were 73%, 81% and 76%, respectively.
For `Fc1ccc(CCNc2ncnc3ccc(F)cc23)cc1` [5as, 6-Fluoro-N-[2-(4-Fluorophenyl)Ethyl]-4-Quinazolinamine], the remaining activity at 10 µM is 100% on Rse(h) (setting [2]); 59% on ALK(h) (setting [2]); 83% at Mnk2(h) (setting [2]); 91% at Lyn(m) (setting [2]); 65% on CDKL3(h) (setting [2]); 91% on Abl(h) (setting [2]). Further, the remaining activity at 10 µM at CDKL4(h) (setting [2]) worked out at 94%; at Aurora-A(h) (setting [2]) it was 87%; at Fer(h) (setting [2]) it was 98%.
With `Fc1ccc2ncnc(NCCc3ccc(Cl)cc3)c2c1` [5at, N-[2-(4-Chlorophenyl)Ethyl]-6-Fluoro-4-Quinazolinamine], the remaining activity at 10 µM came out at 103% at Rse(h) (setting [3]); 86% on ALK(h) (setting [3]); 80% on Mnk2(h) (setting [3]); 77% on Lyn(m) (setting [3]); 71% at CDKL3(h) (setting [3]); 96% at Abl(h) (setting [3]). The remaining activity at 10 µM on CDKL4(h) (setting [3]) is 92%; on Aurora-A(h) (setting [3]), 70%; at Fer(h) (setting [3]) it was 94%.
With `COc1ccc2ncnc(Nc3cccc(F)c3)c2c1` [5ay, N-(3-Fluorophenyl)-6-Methoxy-4-Quinazolinamine], the remaining activity at 10 µM came to 107% at Rse(h) (setting [4]); 72% on ALK(h) (setting [4]); 19% at Mnk2(h) (setting [4]); 93% at Lyn(m) (setting [4]); 29% at CDKL3(h) (setting [4]); 74% at Abl(h) (setting [4]). Moreover, the remaining activity at 10 µM on CDKL4(h) (setting [4]) was found to be 38%; on Aurora-A(h) (setting [4]) it was 79%; at Fer(h) (setting [4]), 80%.
